From ChEMBL document CHEMBL1201862, “PubChem BioAssay data set” (2004)
One block for each molecule: values may come before it. The source made the active and inactive calls.

Assays:
[1] = target: T1, Calpain-2 catalytic subunit (Sus scrofa, UniProt P43367); assay: pig calpain II inhibitor potency, dose response, biochemical, fluorogenic peptide substrate (AID 1420); type: functional
T1 sequence (P43367 whole entry): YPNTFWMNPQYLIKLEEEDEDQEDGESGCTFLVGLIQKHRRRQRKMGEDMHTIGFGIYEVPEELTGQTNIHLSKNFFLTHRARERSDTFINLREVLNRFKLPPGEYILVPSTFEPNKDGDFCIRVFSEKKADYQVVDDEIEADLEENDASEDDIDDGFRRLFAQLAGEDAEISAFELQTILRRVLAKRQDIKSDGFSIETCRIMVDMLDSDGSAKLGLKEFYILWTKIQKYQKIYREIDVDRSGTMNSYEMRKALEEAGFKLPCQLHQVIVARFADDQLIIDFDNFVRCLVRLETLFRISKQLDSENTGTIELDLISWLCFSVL

[2] = target: Lysine-specific demethylase 4C (Homo sapiens, UniProt Q9H3R0); assay: GASC-1 (JMJD2C) histone demethylase inhibitors, dose response, biochemical, DELFIA europium, cherry-picked samples (AID 488835); type: functional
[3] = target: T2, Hepatocyte nuclear factor 4-alpha (Homo sapiens, UniProt P41235); type: functional, cell-based;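 also: biochemical luminescence-based dose-response counterscreen measuring inhibition of HNF4 dimerization, run alongside a screen for blockers of ABHD5–perilipin-5 interaction; split luciferase complementation of HNF4 fusion proteins in cell lysate measuring dimerization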
T2 sequence (P41235 whole entry): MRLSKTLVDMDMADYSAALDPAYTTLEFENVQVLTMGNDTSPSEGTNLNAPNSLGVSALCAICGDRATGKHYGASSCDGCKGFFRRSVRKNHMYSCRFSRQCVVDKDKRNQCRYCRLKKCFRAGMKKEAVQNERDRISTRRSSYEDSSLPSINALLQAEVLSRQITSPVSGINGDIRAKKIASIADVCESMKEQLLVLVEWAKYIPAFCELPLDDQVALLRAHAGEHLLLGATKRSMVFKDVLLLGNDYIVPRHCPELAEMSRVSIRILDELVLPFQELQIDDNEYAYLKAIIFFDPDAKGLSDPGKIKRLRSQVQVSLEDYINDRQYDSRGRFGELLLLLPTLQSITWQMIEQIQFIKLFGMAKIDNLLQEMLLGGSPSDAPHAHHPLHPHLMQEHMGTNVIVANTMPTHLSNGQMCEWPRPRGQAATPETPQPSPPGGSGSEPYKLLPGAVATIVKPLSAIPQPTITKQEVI

[4] = NIH-3T3 fibroblast cytotoxicity, dose response, cytotoxicity control, cell-based, fluorescence, Alamar Blue, secondary assay (AID 2327); type: functional;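 also: NIH-3T3 mouse fibroblasts cultured with fluconazole at 8 µg/mL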
[5] = target: T3, Delta-type opioid receptor (Homo sapiens, UniProt P41143); assay: HTS Image-Based Screen for Antagonists of the DOR Receptor. [Related pubchem assays (depositor defined):AID1777, AID1785, AID1786, AID2133]; type: functional
[6] = target: Mu-type opioid receptor (Homo sapiens, UniProt P35372); assay: HTS Image-Based Screen for Agonists of the MOR Receptor. [Related pubchem assays (depositor defined):AID1777, AID1785, AID1786, AID2133]; type: functional;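 also: imaging of beta-arrestin GFP recruitment into spots after receptor activation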
[7] = target: T3, Delta-type opioid receptor; assay: HTS Image-Based Screen for Agonists of the DOR Receptor. [Related pubchem assays (depositor defined):AID1777, AID1786, AID2133]; type: functional
[8] = C. albicans growth with fluconazole, confirmation, fluorescence, retest (AID 2467); type: functional, cell-based
[9] = inhibitors of intracellular T. cruzi replication, confirmation, NIH3T3 host cells, beta-gal luminescence (AID 2044); type: functional, cell-based;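 also: intracellular parasites grown in NIH/3T3 mouse fibroblasts as host cells; luminescent beta-galactosidase reporter signal from transgenic T. cruzi replicating inside host cells; inhibitors lower the luminescence signal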
[10] = target: T4, Kappa-type opioid receptor (Homo sapiens, UniProt P41145); type: functional
[11] = cytotoxicity toward NIH3T3 fibroblasts, dose response, counter-screen, cell-based, ATP luminescence, mouse fibroblasts (AID 2010); type: functional;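 also: cells exposed to compound for about 90 hours before reading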
[12] = target: Beta-galactosidase (Escherichia coli, UniProt Q8VNN2); type: functional
[13] = target: T4, Kappa-type opioid receptor; type: functional; remark: listed apart in the source
[14] = AlphaScreen signal interference compounds, dose response, artefact control for ARNT-TACC3 interaction inhibitor project, biochemical, luminescence, cherry-pick (AID 651705); type: functional;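 also: AlphaScreen bead proximity signal that flags compounds interfering with the detection technology; potency reflects signal decrease which marks the compound as an assay artifact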
[15] = target: SUMO-activating enzyme (Homo sapiens, UniProt Q9UBT2); assay: SUMOylation inhibitor hit validation, confirmation, SUMOylation inhibitor project, biochemical, AlphaScreen (AID 2018); type: functional
[16] = THP-1 cell cytotoxicity, dose response, cytotoxicity control for Vif-APOBEC3G degradation inhibitor project, THP-1 cells (AID 1117359); type: functional; details: Human immunodeficiency virus 1, THP-1
[17] = tested on: HEK293; assay: NOD1 signaling inhibitors, primary screen, cell-based, luminescence, uHTS (AID 1578); type: functional; details: Homo sapiens
[18] = tested on: HEK293; assay: cells; type: functional, cell-based; details: Homo sapiens
[19] = tested on: HEK293; assay: cells; type: functional, cell-based; details: Homo sapiens; remark: listed apart in the source
[20] = tested on: HEK293; assay: NOD2 signaling inhibitors in MDP-stimulated cells, cell-based, uHTS, luminescence (AID 2001); type: functional; details: Homo sapiens
[21] = target: Tumor necrosis factor (Homo sapiens, UniProt P01375); assay: TNFa-triggered NF-kB activation inhibitors, SAR follow-up, cell-based, revised (AID 2337); type: functional
[22] = target: T5, Nucleotide-binding oligomerization domain-containing protein 1 (Homo sapiens, UniProt Q9Y239); assay: NOD1 signaling inhibitors, SAR follow-up, revised (AID 2333); type: functional
T5 sequence (Q9Y239 whole entry): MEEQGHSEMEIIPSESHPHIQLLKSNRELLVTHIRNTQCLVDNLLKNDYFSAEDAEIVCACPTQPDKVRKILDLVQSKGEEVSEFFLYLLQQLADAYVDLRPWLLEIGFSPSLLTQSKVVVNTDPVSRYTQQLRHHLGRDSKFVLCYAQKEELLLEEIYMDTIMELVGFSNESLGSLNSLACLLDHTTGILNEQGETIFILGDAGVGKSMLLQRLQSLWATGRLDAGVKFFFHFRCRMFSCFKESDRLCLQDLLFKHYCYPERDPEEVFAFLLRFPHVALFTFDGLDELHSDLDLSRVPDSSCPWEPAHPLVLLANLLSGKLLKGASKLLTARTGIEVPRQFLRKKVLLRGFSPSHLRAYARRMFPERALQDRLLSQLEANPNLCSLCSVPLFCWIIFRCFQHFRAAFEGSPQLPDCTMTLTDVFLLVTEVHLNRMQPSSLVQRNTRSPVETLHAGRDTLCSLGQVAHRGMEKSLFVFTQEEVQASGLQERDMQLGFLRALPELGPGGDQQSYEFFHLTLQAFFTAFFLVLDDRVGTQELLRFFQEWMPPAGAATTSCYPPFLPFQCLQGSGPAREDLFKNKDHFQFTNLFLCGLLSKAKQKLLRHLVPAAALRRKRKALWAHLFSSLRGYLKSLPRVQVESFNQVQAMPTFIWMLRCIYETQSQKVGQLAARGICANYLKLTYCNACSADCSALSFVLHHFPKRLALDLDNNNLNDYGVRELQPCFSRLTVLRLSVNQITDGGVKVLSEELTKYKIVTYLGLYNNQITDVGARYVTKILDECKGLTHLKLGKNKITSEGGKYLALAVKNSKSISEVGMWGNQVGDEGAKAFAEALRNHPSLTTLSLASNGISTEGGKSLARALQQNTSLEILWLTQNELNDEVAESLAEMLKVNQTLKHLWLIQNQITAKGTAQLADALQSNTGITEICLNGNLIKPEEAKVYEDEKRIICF

[23] = tested on: HEK293; assay: cells; details: Homo sapiens
[24] = target: T6, Corticotropin-releasing factor receptor 2/Corticotropin-releasing factor-binding protein (Homo sapiens, UniProt P24387+Q13324); assay: Dose Response confirmation of uHTS hits for small molecule antagonists of the CRF-binding protein and CRF-R2 receptor complex.; type: functional; details: read-out: IC50_Mean
T6 sequence (Q13324 whole entry): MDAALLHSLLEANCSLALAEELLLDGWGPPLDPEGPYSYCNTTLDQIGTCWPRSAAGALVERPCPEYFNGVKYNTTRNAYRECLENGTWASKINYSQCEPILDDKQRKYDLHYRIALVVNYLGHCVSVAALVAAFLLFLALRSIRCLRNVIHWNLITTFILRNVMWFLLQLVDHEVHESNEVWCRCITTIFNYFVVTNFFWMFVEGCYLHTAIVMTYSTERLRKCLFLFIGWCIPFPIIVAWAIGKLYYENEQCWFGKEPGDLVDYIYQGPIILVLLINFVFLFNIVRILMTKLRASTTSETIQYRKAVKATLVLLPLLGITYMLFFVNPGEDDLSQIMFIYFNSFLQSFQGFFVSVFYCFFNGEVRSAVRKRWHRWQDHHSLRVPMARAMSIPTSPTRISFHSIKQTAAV
T6 sequence (P24387 whole entry): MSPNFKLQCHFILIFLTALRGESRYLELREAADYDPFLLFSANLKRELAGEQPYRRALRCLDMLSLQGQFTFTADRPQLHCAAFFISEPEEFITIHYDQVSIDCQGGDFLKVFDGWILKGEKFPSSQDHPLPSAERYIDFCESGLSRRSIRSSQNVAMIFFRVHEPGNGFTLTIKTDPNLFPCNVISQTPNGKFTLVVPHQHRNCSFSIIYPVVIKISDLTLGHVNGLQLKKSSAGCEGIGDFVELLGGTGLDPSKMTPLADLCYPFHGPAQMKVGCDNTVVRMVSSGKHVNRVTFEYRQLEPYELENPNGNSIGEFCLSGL

[25] = target: T6, Corticotropin-releasing factor receptor 2/Corticotropin-releasing factor-binding protein; assay: activators of CRF receptor 2 with binding protein – uHTS hits, confirmation (AID 602473); type: functional; details: read-out: EC50_Mean

Chain of SUMO-activating enzyme (Q9UBE0 whole entry): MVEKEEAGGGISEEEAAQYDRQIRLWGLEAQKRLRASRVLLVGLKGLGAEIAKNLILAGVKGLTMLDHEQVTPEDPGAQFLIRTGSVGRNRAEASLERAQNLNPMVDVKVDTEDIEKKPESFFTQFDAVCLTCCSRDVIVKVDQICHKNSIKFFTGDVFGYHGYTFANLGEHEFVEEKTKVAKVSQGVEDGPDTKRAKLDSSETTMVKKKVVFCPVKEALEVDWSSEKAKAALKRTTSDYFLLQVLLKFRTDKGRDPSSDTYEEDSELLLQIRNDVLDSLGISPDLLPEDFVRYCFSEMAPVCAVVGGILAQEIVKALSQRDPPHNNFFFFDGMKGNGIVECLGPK
Chain of SUMO-activating enzyme (Q9UBT2 whole entry): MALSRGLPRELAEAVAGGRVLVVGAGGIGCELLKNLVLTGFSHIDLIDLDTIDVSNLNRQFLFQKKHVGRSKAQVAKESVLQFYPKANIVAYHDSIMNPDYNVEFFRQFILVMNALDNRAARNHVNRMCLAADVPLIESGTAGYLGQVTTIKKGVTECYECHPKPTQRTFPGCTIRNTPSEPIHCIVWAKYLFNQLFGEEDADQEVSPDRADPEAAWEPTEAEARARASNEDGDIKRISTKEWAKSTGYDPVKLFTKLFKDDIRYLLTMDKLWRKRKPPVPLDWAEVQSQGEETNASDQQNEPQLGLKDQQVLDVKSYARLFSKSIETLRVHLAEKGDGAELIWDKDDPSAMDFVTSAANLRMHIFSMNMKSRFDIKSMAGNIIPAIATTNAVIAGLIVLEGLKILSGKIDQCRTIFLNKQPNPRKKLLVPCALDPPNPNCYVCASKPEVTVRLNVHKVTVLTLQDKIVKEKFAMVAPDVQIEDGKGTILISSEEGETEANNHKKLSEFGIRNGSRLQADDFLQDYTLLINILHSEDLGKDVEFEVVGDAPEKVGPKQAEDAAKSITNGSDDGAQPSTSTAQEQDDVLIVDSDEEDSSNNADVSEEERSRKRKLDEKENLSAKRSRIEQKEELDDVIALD
T4 sequence (P41145 whole entry): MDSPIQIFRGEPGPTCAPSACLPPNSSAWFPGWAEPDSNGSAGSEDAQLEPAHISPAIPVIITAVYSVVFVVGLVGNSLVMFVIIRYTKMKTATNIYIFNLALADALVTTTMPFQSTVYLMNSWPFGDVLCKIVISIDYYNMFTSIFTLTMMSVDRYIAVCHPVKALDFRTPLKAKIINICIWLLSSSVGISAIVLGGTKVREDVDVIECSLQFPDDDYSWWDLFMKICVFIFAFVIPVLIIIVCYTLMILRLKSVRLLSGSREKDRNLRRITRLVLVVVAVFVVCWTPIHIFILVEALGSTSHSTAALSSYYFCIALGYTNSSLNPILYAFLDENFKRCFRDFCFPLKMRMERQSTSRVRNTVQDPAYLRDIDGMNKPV
Chain of Lysine-specific demethylase 4C (Q9H3R0 whole entry, the tested form may be a part): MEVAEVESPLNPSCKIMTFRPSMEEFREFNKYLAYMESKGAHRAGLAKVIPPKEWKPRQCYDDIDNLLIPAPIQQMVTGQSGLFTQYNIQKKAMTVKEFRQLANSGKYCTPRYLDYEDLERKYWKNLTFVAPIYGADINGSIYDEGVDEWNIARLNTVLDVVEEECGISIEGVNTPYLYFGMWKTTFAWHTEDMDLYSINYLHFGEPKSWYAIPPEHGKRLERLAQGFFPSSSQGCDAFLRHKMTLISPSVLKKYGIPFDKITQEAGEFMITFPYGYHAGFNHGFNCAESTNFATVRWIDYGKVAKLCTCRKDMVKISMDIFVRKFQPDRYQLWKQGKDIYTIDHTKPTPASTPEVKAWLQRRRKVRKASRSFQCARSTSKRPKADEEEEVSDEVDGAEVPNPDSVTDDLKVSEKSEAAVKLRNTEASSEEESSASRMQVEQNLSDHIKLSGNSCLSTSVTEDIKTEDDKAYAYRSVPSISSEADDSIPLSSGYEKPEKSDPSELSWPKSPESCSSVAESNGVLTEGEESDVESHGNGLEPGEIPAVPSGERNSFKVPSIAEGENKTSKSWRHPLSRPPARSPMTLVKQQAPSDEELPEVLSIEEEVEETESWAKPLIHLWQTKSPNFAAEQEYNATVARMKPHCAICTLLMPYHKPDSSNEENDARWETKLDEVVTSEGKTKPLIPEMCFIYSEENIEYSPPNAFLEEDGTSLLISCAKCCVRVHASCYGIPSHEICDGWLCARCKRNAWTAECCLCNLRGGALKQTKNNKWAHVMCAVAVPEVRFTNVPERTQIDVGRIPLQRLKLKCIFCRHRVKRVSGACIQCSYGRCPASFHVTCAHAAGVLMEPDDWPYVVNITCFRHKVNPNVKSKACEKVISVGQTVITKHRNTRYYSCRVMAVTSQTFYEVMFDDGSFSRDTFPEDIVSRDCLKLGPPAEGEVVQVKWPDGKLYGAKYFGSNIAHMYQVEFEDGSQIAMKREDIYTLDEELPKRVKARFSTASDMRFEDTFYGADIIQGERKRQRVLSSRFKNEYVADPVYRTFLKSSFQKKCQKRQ
T3 sequence (P41143 whole entry): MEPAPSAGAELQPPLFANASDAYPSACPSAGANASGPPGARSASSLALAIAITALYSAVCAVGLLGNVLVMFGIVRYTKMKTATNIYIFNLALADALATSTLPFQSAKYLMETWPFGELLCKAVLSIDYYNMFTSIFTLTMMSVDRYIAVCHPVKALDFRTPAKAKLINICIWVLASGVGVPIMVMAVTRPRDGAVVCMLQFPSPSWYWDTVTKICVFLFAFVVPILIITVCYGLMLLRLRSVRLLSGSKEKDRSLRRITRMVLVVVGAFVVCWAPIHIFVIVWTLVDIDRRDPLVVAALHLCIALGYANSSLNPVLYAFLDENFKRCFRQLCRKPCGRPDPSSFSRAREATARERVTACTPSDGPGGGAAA
Chain of Beta-galactosidase (Q8VNN2 whole entry): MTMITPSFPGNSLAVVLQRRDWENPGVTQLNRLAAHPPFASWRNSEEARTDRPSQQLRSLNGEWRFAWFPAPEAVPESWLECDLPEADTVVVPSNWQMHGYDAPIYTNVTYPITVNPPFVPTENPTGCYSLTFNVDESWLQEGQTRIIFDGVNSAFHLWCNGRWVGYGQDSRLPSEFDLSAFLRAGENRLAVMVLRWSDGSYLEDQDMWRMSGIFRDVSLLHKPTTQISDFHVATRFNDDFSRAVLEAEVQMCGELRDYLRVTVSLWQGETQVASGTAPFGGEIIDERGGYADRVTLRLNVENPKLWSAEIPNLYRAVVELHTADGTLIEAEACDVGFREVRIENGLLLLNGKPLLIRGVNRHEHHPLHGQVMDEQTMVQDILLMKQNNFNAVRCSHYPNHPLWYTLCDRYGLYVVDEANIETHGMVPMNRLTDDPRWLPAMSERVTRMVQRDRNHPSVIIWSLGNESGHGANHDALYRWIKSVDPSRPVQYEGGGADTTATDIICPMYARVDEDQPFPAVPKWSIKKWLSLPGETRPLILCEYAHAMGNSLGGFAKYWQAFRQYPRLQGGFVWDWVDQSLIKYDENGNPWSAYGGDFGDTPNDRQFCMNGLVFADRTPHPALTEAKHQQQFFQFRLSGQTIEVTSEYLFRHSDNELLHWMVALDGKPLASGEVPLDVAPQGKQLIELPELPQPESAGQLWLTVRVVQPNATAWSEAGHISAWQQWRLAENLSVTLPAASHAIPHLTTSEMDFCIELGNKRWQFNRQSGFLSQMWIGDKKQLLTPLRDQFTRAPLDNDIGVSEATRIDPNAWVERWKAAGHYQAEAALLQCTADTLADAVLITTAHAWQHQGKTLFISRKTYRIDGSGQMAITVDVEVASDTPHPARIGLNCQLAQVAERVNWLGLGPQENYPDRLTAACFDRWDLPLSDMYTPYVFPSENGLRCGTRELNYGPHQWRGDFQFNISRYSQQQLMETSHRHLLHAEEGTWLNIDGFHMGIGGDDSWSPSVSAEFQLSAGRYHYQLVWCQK
Chain of Tumor necrosis factor (P01375 whole entry, the tested form may be a part): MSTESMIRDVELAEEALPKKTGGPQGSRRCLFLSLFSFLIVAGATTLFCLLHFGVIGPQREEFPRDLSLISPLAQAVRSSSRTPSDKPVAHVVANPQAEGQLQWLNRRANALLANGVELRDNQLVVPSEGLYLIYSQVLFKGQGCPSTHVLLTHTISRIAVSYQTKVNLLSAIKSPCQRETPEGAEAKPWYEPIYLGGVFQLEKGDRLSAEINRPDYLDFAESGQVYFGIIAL
Chain of Mu-type opioid receptor (P35372 whole entry): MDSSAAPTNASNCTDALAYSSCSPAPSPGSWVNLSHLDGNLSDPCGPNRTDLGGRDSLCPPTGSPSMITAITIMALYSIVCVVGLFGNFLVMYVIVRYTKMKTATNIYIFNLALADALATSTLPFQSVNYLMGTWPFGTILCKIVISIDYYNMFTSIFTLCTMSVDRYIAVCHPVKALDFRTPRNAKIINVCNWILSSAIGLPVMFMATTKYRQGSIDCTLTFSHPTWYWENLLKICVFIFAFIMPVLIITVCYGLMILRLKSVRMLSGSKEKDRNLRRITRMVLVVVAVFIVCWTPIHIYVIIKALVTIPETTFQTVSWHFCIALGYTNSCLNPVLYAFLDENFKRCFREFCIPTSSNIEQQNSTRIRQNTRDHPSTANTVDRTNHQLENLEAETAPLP

- IC50 [1]: 3.06 µM (not active)
- AC50 [2]: 0.95 µM (active)
- IC50 [3]: 2.68 µM (active)
Structure (SMILES): CC1CN(Cc2c(O)ccc3c2oc(=O)c2ccccc23)CC(C)O1 (configuration not stated)

Structure (SMILES): O=S(=O)(Nc1cccc2cccnc12)c1ccc(S(=O)(=O)N2CCCC2)cc1
- EC50 [4]: 17.2 µM (active)
- IC50 [5]: > 32 µM (inactive)
- EC50 [6]: > 32 µM (inactive)
- EC50 [7]: > 32 µM (inactive)
- EC50 [8]: 4.29 µM (active)
- EC50 [9]: 2.33 µM (active)
- IC50 [10]: 8.52 µM (active)
- EC50 [11]: 5.05 µM (active)
- EC50 [12]: > 31.5 µM (inactive)
- IC50 [13]: > 32 µM
- AC50 [14]: 110 µM (active)

- IC50 [15]: > 100 µM (inactive)
Structure (SMILES): COc1ccc(/C=C/c2nnc(NC(=O)CSc3ccc(C)cc3)s2)cc1
- CC50 [16]: > 40 µM (active)

Structure (SMILES): c1ccc(-c2csc3ncnc(NCc4ccccn4)c23)cc1
- EC50 [17]: 3.17 µM (active)
- IC50 [18]: 6.34 µM (active)
- IC50 [19]: 16.3 µM (active)
- IC50 [20]: 7.16 µM (active)
- IC50 [21]: 4.23 µM (active)
- IC50 [22]: 3.2 µM (active)
- IC50 [23]: 11.5 µM (active)

- AC50 [2]: 10.6 µM (active)
Structure (SMILES): COC(=O)c1ccc(CSc2nc(O)c3c(C)c(C(=O)O)sc3n2)cc1

- IC50 [15]: 34.6 µM (active)
- IC50 [24]: > 47.1 µM (inactive)
- EC50 [25]: > 53 µM (inactive)
Structure (SMILES): O=C(CC1SC(N/N=C/C=C/c2ccccc2)=NC1=O)Nc1ccc(Cl)c(Cl)c1 (configuration not stated)
